# Patent publication US11434246B2, “EP4 antagonists” (Eisai R&D Management Co., Ltd., priority 2015, dated 2022)
# pIC50: −log10 of the molar value.
# Molecular target: EP4 (Homo sapiens, UniProt P35408)
# Test: EP4 Antagonism by CRE-PLAP Reporter Assay (SE302 cells, PGE2-stimulated)
# Type: cell-based
# Design: HEK293 cells express endogenous EP4; endogenous in cells; host or cells: SE302 (HEK293 clone with CRE-PLAP reporter)
# Conditions: SE302 (HEK293) cells, 3 ng/mL PGE2, overnight; single or multiple assay average values
# Text: PGE2 and [^3H]-labelled PGE2 were purchased from Cayman Chemical (Ann Arbor, Mich.) and Perkin Elmer (Waltham, Mass.), respectively. Mouse breast 4T1 cells (CRL-2539) were obtained from American Tissue Culture Collection. SE302 cell line is a clone of the HEK293 cells containing cAMP response element (CRE) promoter that when activated drives secretion of placental-like alkaline phosphatase (PLAP). HEK293 cells express endogenous EP4 and show induction of PLAP in response to PGE2 and EP4 agonists, but not EP1, 2 or 3 agonists (Chen Q, Muramoto K, Masaaki N, Ding Y, Yang H, Mackey M, Li W, Inoue Y, Ackermann K, Shrota H, Matsumoto I, Spyvee M, Schiller S, Sumida T, Gusovsky F, and Lamphier M. A novel antagonist of the prostaglandin E2 EP4 receptor inhibits Th1 differentiation and Th17 expansion and is orally active in arthritis models. British J Pharmacol, 2010, 160: 292-310). BalB/C female mice at 7-8 week age were purchased from Jackson Laboratory (Bar Harbor, Me.). Mice were maintained under specific pathogen-free conditions.
# EP4 Antagonism by CRE-PLAP Reporter Assay: SE302 cells were maintained in DMEM/F12 (50:50) (MediaTech) supplemented with 10% FBS (Tissue Culture Biologicals) plus penicillin/streptomycin. When used for assays, cells were plated in a 96-well plate at 2×10^4 cells/100 μL/well in serum-free assay medium (DMEM/F12 supplemented with 0.1% BSA plus penicillin/streptomycin) and incubated for 4-6 h. Cells were then stimulated with 3 ng/mL of PGE2 in the presence or absence of various concentrations of test compound overnight, and PLAP activity was measured by mixing 15 μL of culture supernatants with 75 μL of Lumi-phos (Lumigen, Inc.) and 60 μL of assay buffer containing 8 mmol/L MgSO4 in 0.1 mol/L carbonate-bicarbonate buffer pH11 in a new 96-well black plate and incubated for 2 h at room temperature. The intensity of luminescence, which reflected the PLAP activity in the supernatant, was quantified with an Envision 2101 Multilabel Reader. Values obtained from DMSO treated samples in the presence of PGE2 were defined as 100% of control, whereas values obtained from DMSO treated samples in the absence of PGE2 were defined as 0% of control. % of control for compound treated samples was calculated as follows: (actual reading−0% of control)/(100% of control−0% of control)×100. IC50 value for each individual experiment was calculated using GraphPad Prism 6.02 (Lake Forest, Calif.) with % of control values.
# Compounds of the present invention were assayed according to the methods as described above, and IC50 values, which may be single assay values or multiple assay average values, are summarized in Table 1. Compounds marked “ABS” show absolute stereochemistry.
# Chain of EP4 (P35408 whole entry): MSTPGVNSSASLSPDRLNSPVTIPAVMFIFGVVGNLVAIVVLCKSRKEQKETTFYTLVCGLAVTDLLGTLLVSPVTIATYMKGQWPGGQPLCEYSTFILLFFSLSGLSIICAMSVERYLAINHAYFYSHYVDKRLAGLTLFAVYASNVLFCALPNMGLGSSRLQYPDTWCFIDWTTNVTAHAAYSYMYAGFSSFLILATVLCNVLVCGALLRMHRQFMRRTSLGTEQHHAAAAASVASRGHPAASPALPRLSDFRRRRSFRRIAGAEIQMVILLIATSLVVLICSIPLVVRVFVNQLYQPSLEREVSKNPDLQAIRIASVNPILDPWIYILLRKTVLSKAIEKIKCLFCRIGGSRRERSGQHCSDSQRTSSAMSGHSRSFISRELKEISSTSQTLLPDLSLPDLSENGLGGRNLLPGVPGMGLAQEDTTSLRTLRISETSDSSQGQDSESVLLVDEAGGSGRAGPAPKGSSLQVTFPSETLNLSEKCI
row,SMILES,pIC50
1,"COC(=O)c1ccc([C@H](C)NC(=O)c2c(C(F)(F)F)nn3c2N(Cc2ccc(C(F)(F)F)cc2)CC3)cc1 [Compound 2, Methyl (S)-4-(1-(6-(trifluoromethyl)-1-(4-(trifluoromethyl)benzyl)-2,3-dihydro-1H-imidazo[1,2-b]pyrazole-7-carboxamido)ethyl)benzoate]",8.41
2,"C[C@H](NC(=O)c1c(C(F)(F)F)nn2c1N(Cc1ccc(C(F)(F)F)cc1)CC2)c1ccc(C(=O)O)cc1 [Compound 3, (S)-4-(1-(6-(trifluoromethyl)-1-(4-(trifluoromethyl)benzyl)-2,3-dihydro-1H-imidazo[1,2-b]pyrazole-7-carboxamido)ethyl)benzoic acid]",8.50
3,"C[C@H](NC(=O)c1c(C(F)(F)F)nn2c1N(Cc1ccccc1C(F)(F)F)CC2)c1ccc(C(=O)O)cc1 [Compound 4, (S)-4-(1-(6-(trifluoromethyl)-1-(2-(trifluoromethyl)benzyl)-2,3-dihydro-1H-imidazo[1,2-b]pyrazole-7-carboxamido)ethyl)benzoic Acid]",7.65
4,"C[C@H](NC(=O)c1c(C(F)(F)F)nn2c1N(Cc1cc(C(F)(F)F)cc(C(F)(F)F)c1)CC2)c1ccc(C(=O)O)cc1 [Compound 5, (S)-4-(1-(1-(3,5-bis(trifluoromethyl)benzyl)-6-(trifluoromethyl)-2,3-dihydro-1H-imidazo[1,2-b]pyrazole-7-carboxamido)ethyl)benzoic Acid]",7.34
5,"C[C@H](NC(=O)c1c(C(F)(F)F)nn2c1N(Cc1cc(Cl)cc(C(F)(F)F)c1)CC2)c1ccc(C(=O)O)cc1 [Compound 6, (S)-4-(1-(1-(3-chloro-5-(trifluoromethyl)benzyl)-6-(trifluoromethyl)-2,3-dihydro-1H-imidazo[1,2-b]pyrazole-7-carboxamido)ethyl)benzoic Acid]",9.85
6,"C[C@H](NC(=O)c1c(C(F)(F)F)nn2c1N(Cc1cc(Cl)cc(Cl)c1)CC2)c1ccc(C(=O)O)cc1 [Compound 7, (S)-4-(1-(1-(3,5-dichlorobenzyl)-6-(trifluoromethyl)-2,3-dihydro-1H-imidazo[1,2-b]pyrazole-7-carboxamido)ethyl)benzoic Acid]",9.49
7,"COc1ccc(CN2CCn3nc(C(F)(F)F)c(C(=O)N[C@@H](C)c4ccc(C(=O)O)cc4)c32)cc1 [Compound 8, (S)-4-(1-(1-(4-methoxybenzyl)-6-(trifluoromethyl)-2,3-dihydro-1H-imidazo[1,2-b]pyrazole-7-carboxamido)ethyl)benzoic Acid]",8.10
8,"COc1cccc(CN2CCn3nc(C(F)(F)F)c(C(=O)N[C@@H](C)c4ccc(C(=O)O)cc4)c32)c1 [Compound 9, (S)-4-(1-(1-(3-methoxybenzyl)-6-(trifluoromethyl)-2,3-dihydro-1H-imidazo[1,2-b]pyrazole-7-carboxamido)ethyl)benzoic Acid]",8.85
9,"C[C@H](NC(=O)c1c(C(F)(F)F)nn2c1N(Cc1ccc(OC(F)(F)F)cc1)CC2)c1ccc(C(=O)O)cc1 [Compound 10, (S)-4-(1-(1-(4-(trifluoromethoxy)benzyl)-6-(trifluoromethyl)-2,3-dihydro-1H-imidazo[1,2-b]pyrazole-7-carboxamido)ethyl)benzoic Acid]",7.90
10,"C[C@H](NC(=O)c1c(C(F)(F)F)nn2c1N(Cc1cccc(OC(F)(F)F)c1)CC2)c1ccc(C(=O)O)cc1 [Compound 11, (S)-4-(1-(1-(3-(trifluoromethoxy)benzyl)-6-(trifluoromethyl)-2,3-dihydro-1H-imidazo[1,2-b]pyrazole-7-carboxamido)ethyl)benzoic Acid]",9.39
11,"C[C@H](NC(=O)c1c(C(F)(F)F)nn2c1N(Cc1cccc(Cl)c1)CC2)c1ccc(C(=O)O)cc1 [Compound 12, (S)-4-(1-(1-(3-chlorobenzyl)-6-(trifluoromethyl)-2,3-dihydro-1H-imidazo[1,2-b]pyrazole-7-carboxamido)ethyl)benzoic Acid]",8.65
12,"C[C@H](NC(=O)c1c(C(F)(F)F)nn2c1N(Cc1ccc(Cl)c(Cl)c1)CC2)c1ccc(C(=O)O)cc1 [Compound 13, (S)-4-(1-(1-(3,4-dichlorobenzyl)-6-(trifluoromethyl)-2,3-dihydro-1H-imidazo[1,2-b]pyrazole-7-carboxamido)ethyl)benzoic Acid]",9.36
13,"C[C@H](NC(=O)c1c(C(F)(F)F)nn2c1N(Cc1ccc(F)cc1)CC2)c1ccc(C(=O)O)cc1 [Compound 14, (S)-4-(1-(1-(4-fluorobenzyl)-6-(trifluoromethyl)-2,3-dihydro-1H-imidazo[1,2-b]pyrazole-7-carboxamido)ethyl)benzoic Acid]",9.24
14,"C[C@H](NC(=O)c1c(C(F)(F)F)nn2c1N(Cc1cccc(F)c1)CC2)c1ccc(C(=O)O)cc1 [Compound 15, (S)-4-(1-(1-(3-fluorobenzyl)-6-(trifluoromethyl)-2,3-dihydro-1H-imidazo[1,2-b]pyrazole-7-carboxamido)ethyl)benzoic Acid]",8.78
15,"C[C@H](NC(=O)c1c(C(F)(F)F)nn2c1N(Cc1ccccc1F)CC2)c1ccc(C(=O)O)cc1 [Compound 16, (S)-4-(1-(1-(2-fluorobenzyl)-6-(trifluoromethyl)-2,3-dihydro-1H-imidazo[1,2-b]pyrazole-7-carboxamido)ethyl)benzoic Acid]",8.85
16,"Cc1ccc(CN2CCn3nc(C(F)(F)F)c(C(=O)N[C@@H](C)c4ccc(C(=O)O)cc4)c32)cc1 [Compound 17, (S)-4-(1-(1-(4-methylbenzyl)-6-(trifluoromethyl)-2,3-dihydro-1H-imidazo[1,2-b]pyrazole-7-carboxamido)ethyl)benzoic Acid]",8.78
17,"Cc1cccc(CN2CCn3nc(C(F)(F)F)c(C(=O)N[C@@H](C)c4ccc(C(=O)O)cc4)c32)c1 [Compound 18, (S)-4-(1-(1-(3-methylbenzyl)-6-(trifluoromethyl)-2,3-dihydro-1H-imidazo[1,2-b]pyrazole-7-carboxamido)ethyl)benzoic Acid]",9.19
18,"Cc1ccccc1CN1CCn2nc(C(F)(F)F)c(C(=O)N[C@@H](C)c3ccc(C(=O)O)cc3)c21 [Compound 19, (S)-4-(1-(1-(2-methylbenzyl)-6-(trifluoromethyl)-2,3-dihydro-1H-imidazo[1,2-b]pyrazole-7-carboxamido)ethyl)benzoic Acid]",8.44
19,"CCc1ccc(CN2CCn3nc(C(F)(F)F)c(C(=O)N[C@@H](C)c4ccc(C(=O)O)cc4)c32)cc1 [Compound 20, (S)-4-(1-(1-(4-ethylbenzyl)-6-(trifluoromethyl)-2,3-dihydro-1H-imidazo[1,2-b]pyrazole-7-carboxamido)ethyl)benzoic Acid]",8.65
20,"C[C@H](NC(=O)c1c(C(F)(F)F)nn2c1N(Cc1ccc(C(F)(F)F)cc1)CC2)c1ccc(C(=O)O)c(F)c1 [Compound 21, (S)-2-fluoro-4-(1-(6-(trifluoromethyl)-1-(4-(trifluoromethyl)benzyl)-2,3-dihydro-1H-imidazo[1,2-b]pyrazole-7-carboxamido)ethyl)benzoic Acid]",8.55
21,"C[C@H](NC(=O)c1c(C(F)(F)F)nn2c1N(Cc1ccc(C(F)(F)F)cc1)CC2)c1ccc(C(=O)O)cc1F [Compound 22, (S)-3-fluoro-4-(1-(6-(trifluoromethyl)-1-(4-(trifluoromethyl)benzyl)-2,3-dihydro-1H-imidazo[1,2-b]pyrazole-7-carboxamido)ethyl)benzoic Acid]",8.72
22,"C[C@H](NC(=O)c1c(C(F)(F)F)nn2c1N(Cc1cccc(C(F)(F)F)c1)CC2)c1ccc(C(=O)O)cc1F [Compound 23, (S)-3-fluoro-4-(1-(6-(trifluoromethyl)-1-(3-(trifluoromethyl)benzyl)-2,3-dihydro-1H-imidazo[1,2-b]pyrazole-7-carboxamido)ethyl)benzoic Acid]",9.39
23,"COC(=O)c1ccc([C@H](C)NC(=O)c2c(C(F)(F)F)nn3c2N(Cc2cccc(C(F)(F)F)c2)CC3)cc1F [Compound 24, Methyl (S)-2-fluoro-4-(1-(6-(trifluoromethyl)-1-(3-(trifluoromethyl)benzyl)-2,3-dihydro-1H-imidazo[1,2-b]pyrazole-7-carboxamido)ethyl)benzoate]",8.09
